The source of these data is patent US20100184684A1, “ANTIBACTERIAL AND ANTIFUNGAL PEPTIDES” (C3 JIAN, INC., priority 2009, published 2010).

Converted amounts (≈) assume the structure as drawn. Read-outs that look alike come from different tables or passages of the source. Peptide text beside a SMILES is read from it.

For assay [1], the system named is P. aeruginosa. It counts as cell-based, Pseudomonas aeruginosa. On the procedure:
(§1) In certain embodiments the MIC assays are performed as described herein in the Examples. For each organism, the media and growth conditions utilized is detailed in Table 8.
(§2) In certain embodiments the MIC assays are performed as follows: For each organism, the media and growth conditions utilized is detailed in Table 8.

Assay [2] deals with T. rubrum. It counts as cell-based, Trichophyton rubrum. On the procedure:
as §1, §2

The subject of assay [3] is B. subtilis. It counts as cell-based, Bacillus subtilis. On the procedure:
as §1, §2

Assay [4] concerns C. jeikeium. It counts as cell-based, Corynebacterium jeikium. On the procedure: as §1, §2
For assay [5], the system named is S. epidermidis. Type of assay: cell-based. On the procedure: as §1, §2
The test system of assay [6] is S. mutans. Type of assay: cell-based, Streptococcus mutans. On the procedure: as §1, §2
For assay [7], the system named is A. baumannii. Type of assay: cell-based, Acinetobacter baumannii. On the procedure:
as §1, §2

Assay [8] deals with A. niger. Type of assay: cell-based, Aspergillus niger. On the procedure:
as §1, §2

Assay [9] deals with C. difficile. It counts as cell-based, Clostridium difficile. On the procedure: as §1, §2
Assay [10] has as its system P. gingivalis. It counts as cell-based, Porphyromonas gingivalis. On the procedure:
as §1, §2

In assay [11] the test system is A. naeslundii. Type of assay: cell-based, Actinomyces naeslundii. On the procedure: as §1, §2
Assay [12] has as its system F. nucleatum. Type of assay: cell-based, Fusobacterium nucleatum. On the procedure: as §1, §2
In assay [13] the test system is M. furfur. Kind of assay: MIC assay. Particulars: ATCC medium 1072, 37° C., aerobic, 10^5 CFU/ml. It counts as cell-based, Malassezia furfur. On the procedure: as §1, §2
The test system of assay [14] is MRSA. It counts as cell-based, Staphylococcus aureus. The note with it: MRSA; BHI supplemented with 2% glucose, 37° C., aerobic, 10^5 CFU/ml. On the procedure: as §1, §2

A word on the MIC: it is the lowest concentration that inhibits growth of the organism.

In the case of `CC[C@H](C)[C@H](NC(=O)[C@H](CCCCN)NC(=O)[C@@H](NC(=O)[C@H](CCCCN)NC(=O)[C@H](CCCCN)NC(=O)[C@@H](NC(=O)[C@H](CCCCN)NC(=O)[C@@H]1CCCN1C(=O)[C@H](CCCNC(=N)N)NC(=O)[C@@H]1CCCN1C(=O)[C@H](CCC(N)=O)NC(=O)[C@H](CCC(N)=O)NC(=O)[C@H](CC(N)=O)NC(=O)[C@H](CC(C)C)NC(=O)[C@H](Cc1c[nH]cn1)NC(=O)[C@H](Cc1ccccc1)NC(=O)[C@H](CCC(N)=O)NC(=O)[C@@H](NC(=O)[C@@H](N)Cc1ccc(O)cc1)[C@@H](C)CC)C(C)C)[C@@H](C)CC)C(=O)N[C@@H](Cc1ccccc1)C(=O)N[C@@H](CC(C)C)C(=O)O` [PF-531] (H-YIQFHLNQQPRPKVKKIKIFL-OH; N-terminus and C-terminus assumed), the MIC amounted to 50 µM (≈ 132 µg/mL) in assay [1]; 50 µM (≈ 132 µg/mL) in assay [2]; 25 µM (≈ 66 µg/mL) in assay [3]; 6.25 µM (≈ 16.5 µg/mL) in assay [4]; 50 µM (≈ 132 µg/mL) in [5]; 12.5 µM (≈ 33 µg/mL) in [6]. In addition, the MIC in assay [7] stood at 25 µM (≈ 66 µg/mL); in assay [8], 25 µM (≈ 66 µg/mL); in assay [9] it was 12.5 µM (≈ 33 µg/mL).
Take `CC[C@H](C)[C@H](NC(=O)[C@H](CCC(N)=O)NC(=O)[C@H](CCCCN)NC(=O)[C@H](CC(C)C)NC(=O)[C@H](CC(C)C)NC(=O)[C@@H]1CCCN1C(=O)[C@H](CCSC)NC(=O)[C@H](CC(C)C)NC(=O)[C@H](CO)NC(=O)[C@H](CCCCN)NC(=O)CNC(=O)[C@@H](N)CCCCN)C(=O)N[C@@H](CC(N)=O)C(=O)N[C@@H](CCC(N)=O)C(=O)N[C@@H](Cc1c[nH]c2ccccc12)C(=O)NCC(=O)N[C@@H](CCCCN)C(=O)N[C@@H](CC(C)C)C(=O)N[C@@H](Cc1ccc(O)cc1)C(=O)N[C@@H](CC(C)C)C(=O)O` [PF-C239] (H-KGKSLMPLLKQINQWGKLYL-OH; N-terminus and C-terminus assumed): the minimal inhibitory concentration (MIC) in assay [10] came out at 50 µM (≈ 118 µg/mL); in assay [6] it was 50 µM (≈ 118 µg/mL); in [11], 25 µM (≈ 59 µg/mL); in assay [12] it was 50 µM (≈ 118 µg/mL).
On to `CC[C@H](C)[C@H](NC(=O)[C@@H](NC(=O)[C@H](CO)NC(=O)CN)C(C)C)C(=O)N[C@@H](CCCCN)C(=O)N[C@@H](CCCCN)C(=O)N[C@@H](CCCNC(=N)N)C(=O)N[C@@H](CCCNC(=N)N)C(=O)N[C@@H](CCCCN)C(=O)N[C@@H](CCCNC(=N)N)C(=O)N[C@@H](CCSC)C(=O)N[C@@H](CO)C(=O)N[C@@H](CCCCN)C(=O)N[C@@H](CCCCN)C(=O)N[C@@H](CCCCN)C(=O)N[C@@H](Cc1c[nH]cn1)C(=O)N[C@@H](CCCNC(=N)N)C(=O)N[C@@H](CCCCN)C(=O)N[C@@H](CCSC)C(=O)N[C@@H](CC(C)C)C(=O)N[C@@H](CCCNC(=N)N)C(=O)N[C@@H](CCCNC(=N)N)C(=O)N[C@H](C(=O)N[C@@H](CCCNC(=N)N)C(=O)N[C@H](C(=O)N[C@@H](CCC(N)=O)C(=O)N[C@@H](CCCNC(=N)N)C(=O)N[C@@H](CCCNC(=N)N)C(=O)N[C@@H](CCCCN)C(=O)N[C@@H](CC(C)C)C(=O)NCC(=O)N[C@@H](CCCCN)C(=O)O)C(C)C)[C@@H](C)O` [PF-S028], for which the MIC in [1] (P. aeruginosa, MH, 37° C., aerobic, 10^5 CFU/ml) came to 50 µM (≈ 202 µg/mL); in assay [10] (P. gingivalis, Columbia broth, 37° C., anaerobic, 10^5 CFU/ml), 25 µM (≈ 101 µg/mL); in assay [2] (T. rubrum, Potato Dextrose Agar, 25° C., aerobic, 10^5 CFU/ml), 50 µM (≈ 202 µg/mL); in assay [13] it was 2.5 µM (≈ 10.1 µg/mL); in assay [14], 50 µM (≈ 202 µg/mL); in assay [5] (S. epidermidis, BHI supplemented with 0.25% glucose, 37° C., aerobic, 10^5 CFU/ml) it was 25 µM (≈ 101 µg/mL). In assay [6] (S. mutans, TH supplemented with 1% sucrose, 37° C., anaerobic, 10^5 CFU/ml), this compound returned an MIC of 50 µM (≈ 202 µg/mL).
